The first assay deals with TNFα (Homo sapiens, UniProt P01375). Put plainly: HEK-Blue hTNFα reporter assay. In kind it is cell-based. Set-up: purchased R&D biosystem (R&D Systems) 210-TA-020/CF. Conditions: HEK-Blue hTNFα reporter cells, SEAP readout; read-out: IC50 Range. An excerpt:
Stimulation of HEK293 cells by TNFα leads to activation of the NF-κB pathway. The potency of compounds was examined in HEK-Blue™ hTNFα reporter cells (Invivogen, Cat #hkb-tnfdmyd). HEK-Blue™ TNFα cells were generated by stable transfection of HEK293 cell line with a SEAP reporter gene under the control of the […] minimal promoter fused to NF-κB binding sites. Stimulation of HEK-Blue™ TNFα cells with TNFα triggers the activation of the NF-κB-inducible promoter and the production of SEAP. Levels of SEAP in the supernatant can be easily determined using QUANTI-Blue™ Solution (Invivogen, cat #rep-qbs) by reading the OD at 620-655 nm.
HEK-Blue™ TNFα cells were cultured in DMEM supplemented with 10% FBS, 100p/mL penicillin, 100 μg/mL streptomycin, 100 μg/mL normocin, 1 μg/mL puromycin, and 100 μg/mL zeocin. The culture was maintained in culture incubator with 5% CO2 at 37° C. When used for assay, the cells were gently rinsed twice with pre-warmed phosphate buffered saline (PBS) and detached in presence of PBS by tapping the flask or by using a cell scraper. The cells were spun to remove PBS and resuspended in fresh, pre-warmed test medium (DMEM supplemented with 10% FBS, 100p/mL penicillin, and 100 μg/mL streptomycin). A serial dilution of work solution of tested compound was made in DMSO with 1000× of final concentration, and 40 nL of compound DMSO solution was transferred into 384-well plates (Corning 3764) by Echo, and incubated with 10 μL of recombinant hTNFα (R&D biosystem, Cat #210-TA-020/CF) for 1 h at 37° C. The compound/hTNFα mixture well received 30 μL HEK-Blue™ TNFα cell suspension at 10000 cells/well, and then incubated at 37° C. with 5% CO2 for 24 h. The final concentration of hTNFα is […]. After incubation, 5 μL of induced cell supernatant was transferred to a new 384-well plate well (Coring 3764) to mix with 45 μL of QUANTI-Blue Solution. After 1 h incubation at 37° C., the plate was read using a spectrophotometer at 620 nm.
The percentage of inhibition was calculated by the following formula: % inhibition=(positive control−Sample)/(positive control−negative control)*100 • Positive control: OD620 reading of cells with hTNFα stimulation. • Negative control: OD620 reading of cells without hTNFα stimulation. • Sample: OD620 reading of cells with compound at specific concentration and hTNFα stimulation
The % inhibition was plotted against compound concentration in logarithmic scale and the IC50 was rendered using 4-parameter nonlinear regression (GraphPad Prism).
Sequence of TNFα (P01375 77-233 limits assumed): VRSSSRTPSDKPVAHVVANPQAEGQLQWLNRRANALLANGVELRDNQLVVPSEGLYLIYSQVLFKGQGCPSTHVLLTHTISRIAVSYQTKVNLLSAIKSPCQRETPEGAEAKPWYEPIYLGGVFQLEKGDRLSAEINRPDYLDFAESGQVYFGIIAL
On to `CN1C(=O)c2cccc(OC(F)F)c2[C@H]2C[C@@H]1c1nn3cnc(-c4cnc([C@]5(N)C[C@@](C)(C#N)C5)c(F)c4)cc3c12` [Example 59], for which the IC50 is below 25 nM.
On the same count and under the same terms, in the case of `C[C@]1(C#N)C[C@](N)(c2ncc(-c3ccn4nc5c(c4n3)[C@@H]3C[C@H]5NC(=O)c4cccc(OC(F)F)c43)cn2)C1` [Example 60] it was below 25 nM.
Take `[2H]C([2H])([2H])N1C(=O)c2cccc(OC(F)F)c2[C@H]2C[C@@H]1c1nn3cnc(-c4cnc([C@]5(N)C[C@@](C)(C#N)C5)nc4)cc3c12` [Example 61]: the IC50 was below 25 nM.
The same measure, in the same setting: in the case of `CN1C(=O)c2cccc(OC(F)F)c2[C@H]2C[C@@H]1c1nn3ccc(-c4cnc([C@]5(O)CCOC5)nc4)cc3c12` [Example 63] it was below 25 nM; in that of `CN1C(=O)c2cccc(OC(F)F)c2[C@H]2C[C@@H]1c1nn3ccc(-c4cnc([C@@]5(O)CCOC5)nc4)cc3c12` [Example 64], below 25 nM; in that of `CN1C(=O)c2cccc(OC(F)F)c2[C@H]2C[C@@H]1c1nn3ccc(-c4cnc(C5(O)CCOCC5)nc4)cc3c12` [Example 65], below 25 nM.
The same measure, in the same setting: in the case of `CN1C(=O)c2cccc(OC(F)F)c2[C@H]2C[C@@H]1c1nn3ccc(-c4cnc(C5(O)CC(F)(F)C5)nc4)cc3c12` [Example 66] it was below 25 nM.
On the same count and under the same terms, in the case of `CN1C(=O)c2cccc(OC(F)F)c2[C@H]2C[C@@H]1c1nn3ccc(-c4cnc(OCP(C)(C)=O)nc4)cc3c12` [Example 67] it was below 25 nM.
Regarding `CN1C(=O)c2cccc(OC(F)F)c2[C@H]2C[C@@H]1c1nn3ccc(-c4ccc(S(=N)(=O)C5CC5)nc4)cc3c12` (some centres unmarked) [Example 68], the IC50 is below 25 nM.
Still for that read-out and setting: next, `CN1C(=O)c2cccc(OC(F)F)c2[C@H]2C[C@@H]1c1nn3ccc(-c4ccnc(OCP(C)(C)=O)c4)cc3c12` [Example 70]: below 25 nM.
Still for that read-out and setting: next, `CN1C(=O)c2cccc(OC(F)F)c2[C@H]2C[C@@H]1c1nn3ccc(-c4cnc(C5(O)CCC5)nc4)cc3c12` [Example 71]: below 25 nM.
The same measure, in the same setting: in the case of `CN1C(=O)c2cccc(OC(F)F)c2[C@H]2C[C@@H]1c1nn3ccc(-c4cnc(C5(O)CCC(F)(F)CC5)nc4)cc3c12` [Example 72] it was below 25 nM; in that of `CN1C(=O)c2cccc(OC(F)F)c2[C@H]2C[C@@H]1c1nn3ccc(-c4cnc([C@@](C)(O)C(F)F)nc4)cc3c12` [Example 73], below 25 nM.
Take `CN1C(=O)c2cccc(OC(F)F)c2[C@H]2C[C@@H]1c1nn3ccc(-c4cnc([C@](C)(O)C(F)F)nc4)cc3c12` [Example 74]: the IC50 is below 25 nM.
The same measure, in the same setting: next, `CN1C(=O)c2cccc(OC(F)F)c2[C@H]2C[C@@H]1c1nn3ccc(-c4cnc([C@](C)(O)CC#N)nc4)cc3c12` [Example 75]: below 25 nM; `CN1C(=O)c2cccc(OC(F)F)c2[C@H]2C[C@@H]1c1nn3ccc(-c4cnc([C@@](C)(O)CC#N)nc4)cc3c12` [Example 76]: below 25 nM.
With `CN1C(=O)c2cccc(OC(F)F)c2[C@H]2C[C@@H]1c1nn3ccc(-c4cnc(C5(O)COC5)nc4)cc3c12` [Example 77], the IC50 was below 25 nM.
Take `CN1C(=O)c2cccc(OC(F)F)c2[C@H]2C[C@@H]1c1nn3ccc(-c4cnc([C@](O)(CC#N)C(F)F)nc4)cc3c12` [Example 78]: the IC50 is below 25 nM.
Same read-out and setting: next, `CN1C(=O)c2cccc(OC(F)F)c2[C@H]2C[C@@H]1c1nn3ccc(-c4cnc([C@@](O)(CC#N)C(F)F)nc4)cc3c12` [Example 79]: below 25 nM.
The same measure, in the same setting: in the case of `CN1C(=O)c2cccc(OC(F)F)c2[C@H]2C[C@@H]1c1nn3ccc(-c4cnc([C@@](C)(O)C5CC5)nc4)cc3c12` [Example 80] it was below 25 nM; in that of `CN1C(=O)c2cccc(OC(F)F)c2[C@H]2C[C@@H]1c1nn3ccc(-c4cnc([C@](C)(O)C5CC5)nc4)cc3c12` [Example 81], below 25 nM; in that of `CN1C(=O)c2cccc(OC(F)F)c2[C@H]2C[C@@H]1c1nn3ccc(-c4cnc([C@]5(O)C[C@@H](O)C5)nc4)cc3c12` [Example 82], below 25 nM.
As to `CN1C(=O)c2cccc(OC(F)F)c2[C@H]2C[C@@H]1c1nn3ccc(-c4cnc([C@](C)(O)CO)nc4)cc3c12` [Example 83], the IC50 is below 25 nM.
Same read-out and setting: next, `CN1C(=O)c2cccc(OC(F)F)c2[C@H]2C[C@@H]1c1nn3ccc(-c4cnc([C@@](C)(O)CO)nc4)cc3c12` [Example 84]: below 25 nM; `CN1C(=O)c2cccc(OC(F)F)c2[C@H]2C[C@@H]1c1nn3ccc(-c4cnc([C@@](C)(O)C5COC5)nc4)cc3c12` [Example 85]: below 25 nM.
Same read-out and setting: in the case of `CN1C(=O)c2cccc(OC(F)F)c2[C@H]2C[C@@H]1c1nn3ccc(-c4cnc([C@](C)(O)C5COC5)nc4)cc3c12` [Example 86] it was below 25 nM; in that of `CN1C(=O)c2cccc(OC(F)F)c2[C@H]2C[C@@H]1c1nn3ccc(-c4cnc(P(C)(C)=O)cn4)cc3c12` [Example 87], below 25 nM.
For the compound `CN1C(=O)c2cccc(OC(F)F)c2[C@H]2C[C@@H]1c1nn3ccc(-c4cnc([C@]5(N)C[C@@](C)(C(=O)O)C5)nc4)cc3c12` [Example 88], the IC50 is below 25 nM.
The same measure, in the same setting: next, `[2H]C([2H])([2H])N1C(=O)c2cccc(OC(F)F)c2[C@H]2C[C@@H]1c1nn3ccc(-c4cnc([C@@](C)(O)CC#N)nc4)cc3c12` [Example 89]: below 25 nM.
For `[2H]C([2H])([2H])N1C(=O)c2cccc(OC(F)F)c2[C@H]2C[C@@H]1c1nn3ccc(-c4cnc([C@](C)(O)CC#N)nc4)cc3c12` [Example 90], the IC50 is below 25 nM.
Still for that read-out and setting: next, `CN1C(=O)c2cccc(OC(F)F)c2[C@H]2C[C@@H]1c1nn3ccc(-c4cnc([C@]5(O)C[C@](O)(C(F)F)C5)nc4)cc3c12` [Example 91]: below 25 nM.
`CN1C(=O)c2cccc(OC(F)F)c2[C@H]2C[C@@H]1c1nn3ccc(-c4cnc(S(=N)(=O)C5CC5)nc4)cc3c12` (some centres unmarked) [Example 92]: the concentration for half-maximal inhibition (IC50) fell in the range of 25 to 100 nM.
Consider `C[C@H](O)c1ncc(-c2ccn3nc4c(c3c2)[C@@H]2C[C@H]4N(C)C(=O)c3cccc(OC(F)F)c32)cn1` [Example 93], for which the IC50 was below 25 nM.
On the same count and under the same terms, in the case of `C[C@@H](O)c1ncc(-c2ccn3nc4c(c3c2)[C@@H]2C[C@H]4N(C)C(=O)c3cccc(OC(F)F)c32)cn1` [Example 94] it was below 25 nM.
On the same count and under the same terms, in the case of `CN1C(=O)c2cccc(OC(F)F)c2[C@H]2C[C@@H]1c1nn3ccc(-c4cnc(C(O)(CF)CF)nc4)cc3c12` [Example 95] it was below 25 nM; in that of `[2H]C([2H])([2H])N1C(=O)c2cccc(OC(F)F)c2[C@H]2C[C@@H]1c1nn3ccc(-c4cnc([C@](O)(CC#N)C(F)F)nc4)cc3c12` [Example 96], below 25 nM; in that of `[2H]C([2H])([2H])N1C(=O)c2cccc(OC(F)F)c2[C@H]2C[C@@H]1c1nn3ccc(-c4cnc([C@@](O)(CC#N)C(F)F)nc4)cc3c12` [Example 97], below 25 nM.
Regarding `CN1C(=O)c2cccc(OC(F)F)c2[C@H]2C[C@@H]1c1nn3cc(F)c(-c4cnc(C5(O)COC5)nc4)cc3c12` [Example 98], the IC50 is below 25 nM.
`CN1C(=O)c2cccc(OC(F)F)c2[C@H]2C[C@@H]1c1nn3ccc(-c4cnc(C5(N)CC(F)(F)C5)nc4)cc3c12` [Example 99]: the half-inhibitory concentration (IC50) is below 25 nM.
On to `CN1C(=O)c2cccc(OC(F)F)c2[C@H]2C[C@@H]1c1nn3ccc(-c4ccc(P(C)(C)=O)nn4)cc3c12` [Example 100], for which the IC50 is below 25 nM.

The same assay, now with this note: HEK-Blue hTNFα reporter cells; read-out: TNFα reporter, Emax.
Regarding `CN1C(=O)c2cccc(OC(F)F)c2[C@H]2C[C@@H]1c1nn3cnc(-c4cnc([C@]5(N)C[C@@](C)(C#N)C5)c(F)c4)cc3c12` [Example 59], the Emax was 98%.
As to `CN1C(=O)c2cccc(OC(F)F)c2[C@H]2C[C@@H]1c1nn3ccc(-c4cnc(C5(O)CCOCC5)nc4)cc3c12` [Example 65], the maximal response (Emax) worked out at 90%.

The same assay, now with this note: HEK-Blue hTNFα reporter cells; read-out: TNFα reporter, IC50.
Regarding `CN1C(=O)c2cccc(OC(F)F)c2[C@H]2C[C@@H]1c1nn3cnc(-c4cnc([C@]5(N)C[C@@](C)(C#N)C5)c(F)c4)cc3c12` [Example 59], the IC50 is 4.1 nM.
On the same count and under the same terms, in the case of `CN1C(=O)c2cccc(OC(F)F)c2[C@H]2C[C@@H]1c1nn3ccc(-c4cnc(C5(O)CCOCC5)nc4)cc3c12` [Example 65] it was 3.1 nM.

The values above are taken from patent US12410179B2, “Modulators of TNF alpha activity and uses thereof” (RayThera, Inc., priority 2023, dated 2025).
